PMC7969873 (Cell Reports, 2021)
Where two headings read alike, the source gives them in different places.

How the values were obtained:
[1] = test system: SARS-CoV-2; experiment: SARS-CoV-2 infection of HEK293-ACE2 cells (IFA); type: cell-based; conditions: for anti-viral activity in secondary screen: 250 nM, pre-treated 24 hours, one day post-infection
[2] = test system: SARS-CoV-2; type: cell-based; conditions: 250 nM, Vero E6 cells, 48 h
[3] = test system: SARS-CoV-2; experiment: microbe, parasite or virus in culture; type: cell-based; conditions: for IC50: IFA, read-out: IC50, inhibition of SARS-CoV-2 infectivity
[4] = test system: SARS-CoV-2; experiment: microbe, parasite or virus in culture; type: cell-based; conditions: Severe acute respiratory syndrome coronavirus 2, Calu-3 cells, read-out: IC50, SARS-CoV-2 viral titer
[5] = HeLa-ACE2 uninfected host cell cytotoxicity counter screen; type: cell-based; conditions: human, uninfected HeLa-ACE2 cells; read-out: median cytotoxic concentration (CC50)
Experimental: Compounds were acoustically transferred into 1,536-well μclear plates (Greiner Part. No. 789091). HeLa-ACE2 cells were maintained as described for the infection assay and seeded in the assay-ready plates at 400 cells/well in DMEM with 2% FBS and plates were incubated for 24 hours at 37°C 5% CO2. To assess cell viability, the Image-iT DEAD green reagent (Thermo Fisher) was used according to manufacturer instructions. Cells were fixed with 4% paraformaldehyde, and counterstained with DAPI.

[6] = test system: SARS-CoV-2; conditions: for median effective dose (ED50), percentage of infected cells: HeLa-ACE2 cells
[7] = test system: SARS-CoV-2; experiment: microbe, parasite or virus in culture; type: cell-based; conditions: for IC50: Severe acute respiratory syndrome coronavirus 2, A549-ACE2, 24 h, 24 h, read-out: IC50, SARS-CoV-2 immunostaining signal
[8] = test system: MERS-CoV; experiment: microbe, parasite or virus in culture; type: cell-based; conditions: Middle East respiratory syndrome-related coronavirus, Calu-3, read-out: IC50, MERS-CoV viral titer
[9] = test system: ATR; set-up: method as in vendor Selleckchem; conditions: HT29 cells; ref vendor Selleckchem; read-out: IC50, ATR inhibition; cited from earlier work
[10] = test system: SARS-CoV-1; experiment: microbe, parasite or virus in culture; type: cell-based; conditions: Severe acute respiratory syndrome coronavirus, Calu-3, read-out: IC50, SARS-CoV-1 viral titer
[11] = test system: human primary lung cells; experiment: Toxicity in human primary lung cells; type: cell-based
[12] = test system: CHK1 phosphorylation (pCHK1); experiment: CHK1 phosphorylation in Vero E6 cells (western blot); type: cell-based
Experimental: Cells were lysed in 50 mM Tris pH 7.4, 1% NP-40, 0.25% sodium deoxycholate, 1 mM EDTA, 150 mM NaCl, 1 mM Na3VO4, […], 1mM PMSF, 2 mg ml^-1 aprotinin, 2 mg ml^-1 leupeptin and 0.7 mg ml^-1 pepstatin or Laemmli Sample Buffer (Bio Rad, Hercules, CA). Cell lysates were resolved by SDS-PAGE using 10% gradient gels and transferred to a 0.2 μm PVDF membrane. Subsequently, the membranes were blocked with 5% skim milk and 0.1% Tween-20 in 1x TBST (0.1% Tween-20) at room temperature for 1 hour. The membranes were then probed with respective monoclonal antibodies and detected by Thermo Scientific SuperSignal West Femto Maximum Sensitivity Substrate.

[13] = test system: SARS-CoV-2; experiment: microbe, parasite or virus in culture; type: cell-based
[14] = test system: SARS-CoV-2; type: cell-based; conditions: hiPSC-CMs, 250 nM
[15] = test system: Calu-3 cells; experiment: Cell viability assay (MTT) in Calu-3 cells; type: cell-based, human
Experimental: Calu-3 and A549-ACE2 were seeded in 96-well plates with 3.5 × 10^5 cells/ml, 100 μL per well, for 24 h. The compounds to be tested or pure DMSO as […] control were serially diluted in CoV infection medium (DMEM, supplemented with 1 % L-glu, 1 % P/S and 2 % FBS) to obtain 5-fold of the desired final concentrations. The growth medium was removed from the cells and replaced with 80 μl/well of fresh infection medium. Subsequently, 20 μL of the diluted compounds were added in quadruplicates for each concentration (i.e., 5-fold dilution to reach the final concentrations). Cells were incubated for 48 h at 37°C (5% CO2, 96 % rH). At 48 h post treatment, cell viability was measured on a Tecan Safire 2 plate reader using the CellTiter 96® Non-Radioactive Cell Proliferation Assay (MTT) (Promega) according to manufacturer’s instructions.

[16] = test system: SARS-CoV-2; experiment: SARS-CoV-2 replication kinetics in Vero E6 cells (RT-qPCR genome copies, western blot); type: cell-based; conditions: for viral genome and protein production: from 8 h onward
[17] = test system: hiPSC-CMs; experiment: Cardiomyocyte beating / in vitro cardiotoxicity in hiPSC-CMs; type: cell-based, human; conditions: 250 nM; for in vitro cardiotoxicity: hiPSC-CMs
Experimental: Thus, we used the human-induced pluripotent stem-cell-derived cardiomyocyte (hiPSC-CM) system for antiviral drug testing against SARS-CoV-2. […] Thus, this cardiomyocyte system is useful for antiviral drug testing against SARS-CoV-2. […] The inhibition of virus production by berzosertib was evaluated by quantifying the infectious virus (TCID50) in the supernatant at various time points (Figure 2B). […] Infection of cardiomyocytes with SARS-CoV-2 was confirmed by specific staining of cardiac troponin T (cTnT) and viral spike proteins (Figure 2E). Untreated SARS-CoV-2-infected cells had infection-mediated cell injury with disrupted troponin T fibers.

[18] = set-up: method as in earlier work; conditions: cancer setting, phases 1 and 2, ref Konstantinopoulos et al., 2020, Yap et al., Thomas et al., 2018; cited from earlier work
[19] = test system: IL6; experiment: IL6 gene expression in SARS-CoV-2-infected Vero E6 cells (RT-qPCR); type: cell-based
[20] = Severe acute respiratory syndrome coronavirus 2, Vero C1008, Vero E6 cells

CNC(=O)c1cccc(-c2ccc3c(N4CCOC[C@@H]4C)nc(N4CCOC[C@@H]4C)nc3n2)c1 [AZD2014, Vistusertib]
anti-viral activity in secondary screen [1]: not exhibited potent anti-viral activity | antiviral activity (prevention of viral CPE) in primary screen [2]: antiviral activity | IC50 [3, 20]: 34 nM | IC50 ([3]; Vero E6 cells): < 25 nM

CN1CCN(Cc2ccc(-c3cnc4[nH]cc(-c5ccc6[nH]ccc6c5)c4c3)cc2)CC1 [URMC-099]
antiviral activity (prevention of viral CPE) in primary screen [2]: antiviral activity | IC50 [3, 20]: 50 to 125 nM

IFN-α
blocking of SARS-CoV-2 infection (IFA) ([3]; Vero E6 cells, 48 hpi, hydroxychloroquine and EIDD-2801 10 μM): effectively blocked

Nc1ccc(-c2ccc3ncc4ccc(=O)n(-c5cccc(C(F)(F)F)c5)c4c3c2)cn1 [Torin 2]
antiviral activity (prevention of viral CPE) in primary screen [2]: antiviral activity | IC50 ([3]; Vero E6 cells): < 25 nM

CCC(CC)COC(=O)[C@H](C)N[P@](=O)(OC[C@H]1O[C@@](C#N)(c2ccc3c(N)ncnn23)[C@H](O)[C@@H]1O)Oc1ccccc1 [Remdesivir]
IC50 [4]: 150 nM | CC50 at 24 h [5]: > 10000 nM | median effective dose (ED50), percentage of infected cells [6]: 124 nM | IC50 [7]: 160 nM | IC50 ([7]; A549-ACE2 cells, […]): 200 nM

Cc1cn(-c2cc(NC(=O)c3ccc(C)c(Nc4nccc(-c5cccnc5)n4)c3)cc(C(F)(F)F)c2)cn1 [Nilotinib]
anti-viral activity in secondary screen [1]: not exhibited potent anti-viral activity | antiviral activity (prevention of viral CPE) in primary screen [2]: antiviral activity | IC50 [3, 20]: 50 to 125 nM

CNCc1ccc(-c2cc(-c3nc(-c4ccc(S(=O)(=O)C(C)C)cc4)cnc3N)on2)cc1 [Berzosertib]
IC50 [8]: 290 nM | IC50 [4]: 480 nM | IC50 [9]: 19 nM | IC50 [10]: 320 nM | concentration with detectable toxicity [11]: > 50 µM | phosphorylation of CHK1 [12]: reduced | inhibition of virus replication ([1]; 100 nM, 48 hpi): complete inhibition | inhibition of SARS-CoV-2 [13]: effective | IC50 ([13]; Severe acute respiratory syndrome coronavirus 2, human primary lung cells): 40 nM | virus production (infectious virus, TCID50, in supernatant) [14]: significantly reduced | apoptotic cell death associated with viral infection ([14]; cleaved caspase-3): significantly reduced | antiviral activity (prevention of viral CPE) in primary screen [2]: antiviral activity | concentration with detectable toxicity [15]: > 50 µM | CC50 at 24 h [5]: 3890 nM | median effective dose (ED50), percentage of infected cells [6]: 200 nM | total cells per well (cytotoxic effect at active concentrations) ([6]; SARS-CoV-2-infected HeLa-ACE2 cells): did not change | number of viral genome copies at 2 hpi (entry) ([16]; 2 hpi): not affected | viral genome and protein production [16]: inhibited | viral genome and protein production ([16]; listed as berzosertib): significantly reduced | in vitro cardiotoxicity [17]: No in vitro cardiotoxicity | IC50 ([3]; Vero E6 cells): < 25 nM | tolerability in oncology clinical studies [18]: well tolerated | viral-mediated induction of pro-inflammatory gene IL6 [19]: reduced | combination effect (isobologram, Compusyn) [7]: synergistic | selectivity index (SI) ([7]; A549-ACE2 cells): 204 | IC50 [7]: 240 nM | IC50 ([7]; A549-ACE2 cells, […]): 220 ± 30 nM

Cn1c(=O)n(-c2ccc(C(C)(C)C#N)cc2)c2c3cc(-c4cnc5ccccc5c4)ccc3ncc21 [Dactolisib]
virus production (infectious virus, TCID50, in supernatant) [14]: inhibited viral production | cardiomyocyte beating (beats per minute) ([17]; SARS-CoV-2-infected hiPSC-CMs): affected the cardiomyocyte functional beating | in vitro cardiotoxicity [17]: had cardiotoxicity | IC50 [3, 20]: 111 nM

CC(C)(O)CNc1ncc(-c2ccnc(Nc3ccnc(Cl)c3)n2)c(CC2CC2)n1 [VPS34-IN1]
antiviral activity (prevention of viral CPE) in primary screen [2]: antiviral activity | IC50 [3, 20]: 50 to 125 nM
